The values that follow come from patent US8193185B2, “Use of tryptanthrin compounds for immune potentiation” (Novartis Vaccines and Diagnostics, Inc., priority 2003, dated 2012).

SMILES strings stand for the structures. Bounds are passed on as bounds.

For this experiment, the system named is human peripheral blood mononuclear cells (PBMC). The experiment can be described thus: HTS assay for small molecule immune potentiators: TNF-a production by human PBMC (sandwich ELISA). Type of experiment: cell-based. Conditions: human PBMC 500,000 per mL, 18 h at 37° C., secreted TNF by sandwich ELISA. The text has this: Candidate small molecule immune potentiators can be identified in vitro. Compounds are screened in vitro for their ability to stimulate human peripheral blood mononuclear cells to produce cytokines (e.g. TNF-a and IL-12 p40). Apoptosis inducing small molecules may be identified having this activity. These small molecule immunopotentiators have potential utility as adjuvants and immunotherapeutics.
In an assay procedure (High Throughput Screening (HTS)) for small molecule immune potentiators (SMIPs), human peripheral blood mononuclear cells (PBMC), 500,000 per mL in RPMI 1640 medium with 10% FCS, are distributed in 96 well plates (100,000 per well) already containing 5 μM of compound in DMSO. The PBMCs are incubated for 18 h at 37° C. in 5% CO2. Their ability to produce cytokines in response to the small molecule compounds is determined using a modified sandwich ELISA.
Briefly supernatants from the PBMC cultures are assayed for secreted TNF using a primary plate bound antibody for capture followed by a secondary biotinylated anti-TNF antibody forming a sandwich. The biotinylated second antibody is then detected using streptavidin-Europium and the amount of bound europium is determined by time resolved fluorescence. Compounds are screened for their TNF inducing activity that is measured in the assay as increased Europim counts over cells incubated in RPMI medium alone. “Hits” are selected based on their TNF-inducing activity relative to an optimal dose of lipopolysaccaride LPS (1 μg/ml), a strong TNF inducer. The robustness of the assay and low backgrounds have allowed for the routine selection of hits with ˜10% of LPS activity that is normally between 5-10× background (cells alone). Selected hits are then subjected to confirmation for their ability to induce cytokines from multiple donors at decreasing concentrations. Those compounds with consistent activity at or below 5 μM are considered confirmed for the purposes of this assay. The assay is readily modified for screening for compounds effective at higher or lower concentrations.
For `O=C1c2cc(I)ccc2-n2c1nc1c(Br)cc(Br)cc1c2=O` [Compound 1010, 2,4-dibromo-8-iodoindolo[2,1-b]quinazoline-6,12-dione], the minimal effective concentration was not below 5 µM.

With `O=C1c2cc(OC(F)(F)F)ccc2-n2c1nc1ccccc1c2=O` [Compound 1021, 8-[(trifluoromethyl)oxy]indol o[2,1-b]quinazoline-6,12-dione], the minimal effective concentration was not below 5 µM.

Consider `CN(CCO)c1ccc2c(=O)n3c(nc2c1)C(=O)c1cc(OC(F)(F)F)ccc1-3` [Compound 1050, 3-[(2-hydroxyethyl)(methyl)a-mino]-8-[(trifluoromethyl)oxy]indol o[2,1-b]quinazoline-6,12-dione], for which the minimal effective concentration was not below 20 µM.

Regarding `Cc1cccc2nc3n(c(=O)c12)-c1ccc(F)cc1C3=O` [Compound 1007, 8-fluoro-1-methylindolo[2,1-b]quinazoline-6,12-dione], the minimal effective concentration was not above 1.5 µM.

Regarding `O=C1c2cc(F)cc(F)c2-n2c1nc1ccccc1c2=O` [Compound 1008, 8,10-difluoroindolo[2,1-b]quinazoline-6,12-dione], the minimal effective concentration is not above 1.5 µM.

For `O=C1c2cc(Cl)ccc2-n2c1nc1cc(N3CCOCC3)ccc1c2=O` [Compound 1045, 8-chloro-3-morpholin-4-ylindolo[2,1-b]quinazoline-6,12-dione], the minimal effective concentration is not below 20 µM.

Regarding `O=C1c2cc(I)ccc2-n2c1nc1c(I)cc(I)cc1c2=O` [Compound 1043, 2,4,8-triiodoindolo[2,1-b]quinazoline-6,12-dione], the minimal effective concentration is not below 20 µM.

Regarding `CC(=O)OCCCC/C=C/c1ccc2c(c1)C(=O)c1nc3ncccc3c(=O)n1-2` [Compound 1033, (5E)-6-(5,11-dioxo-5,11-dihydropyrido[2′,3′:4,5]py-rimido[1,2-a]indol-9-yl)hex-5-enyl acetate], the minimal effective concentration is not above 1.5 µM.

Regarding `O=C1c2cc(F)ccc2-n2c1nc1ccc(F)cc1c2=O` [Compound 1003, 2,8-difluoroindolo[2,1-b]quinazoline-6,12-dione], the minimal effective concentration is not below 5 µM.

On to `O=C1c2c(cccc2C(F)(F)F)-n2c1nc1ncccc1c2=O` [Compound 1031, 10-(trifluoromethyl)pyrido[2′, 3′:4,5]pyrimido[1,2-a]indole-5,11-dione], for which the minimal effective concentration is not above 1.5 µM.

With `CCOP(=O)(CCCC/C=C/c1ccc2c(c1)C(=O)c1nc3ncccc3c(=O)n1-2)OCC` [Compound 1032, diethyl (5E)-6-(5,11-dioxo-5,11-dihydropyrido[2′,3′:4,5]py-rimido[1,2-a]indol-9-yl)hex-5-enylphosphonate], the minimal effective concentration was not below 5 µM.

On to `CCCCCCCCNS(=O)(=O)c1ccc2c(c1)C(=O)c1nc3ncccc3c(=O)n1-2` [Compound 1030, N-octyl-5,11-dioxo-5,11-dihydropyrido[2′,3′:4,5]py-rimido[1,2-a]indole-9-sulfonamide], for which the minimal effective concentration is not above 1.5 µM.

Turning to `O=C1c2cc(Cl)ccc2-n2c1nc1ncccc1c2=O` [Compound 1027, 9-chloropyrido[2′,3′:4,5]pyri-mido[1,2-a]indole-5,11-dione], the minimal effective concentration is not above 1.5 µM.

Regarding `CCNC(=O)c1ccc2c(c1)C(=O)c1nc3c(OC)cccc3c(=O)n1-2` [Compound 1020, N-ethyl-4-(methyloxy)-6,12-dioxo-6,12-dihydroindolo[2,1-b]quinazoline-8-carboxamide], the minimal effective concentration is not above 1.5 µM.

For `O=C1c2cc([N+](=O)[O-])ccc2-n2c1nc1ccccc1c2=O` [Compound 1001, 8-nitroindolo[2,1-b]quinazoline-6,12-dione], the minimal effective concentration is not above 1.5 µM.

As for `O=C1c2cc(F)ccc2-n2c1nc1c(F)cccc1c2=O` [Compound 1009, 4,8-difluoroindolo[2,1-b]quinazoline-6,12-dione], the minimal effective concentration is not below 5 µM.

In the case of `CCOC(=O)c1ccc2c(c1)C(=O)c1nc3ncccc3c(=O)n1-2` [Compound 1029, ethyl 5,11-dioxo-5,11-dihydropyrido[2′,3′:4,5]py-rimido[1,2-a]indole-9-carboxylate], the minimal effective concentration is not above 1.5 µM.

`O=C1c2cc(OC(F)(F)F)ccc2-n2c1nc1cc(F)ccc1c2=O` [Compound 1022, 3-fluoro-8-[(trifluoromethyl)oxy]indol o[2,1-b]quinazoline-6,12-dione]: the minimal effective concentration was not above 1.5 µM.

Take `CN(CCOC(=O)CCC(=O)O)c1ccc2c(=O)n3c(nc2c1)C(=O)c1cc(Cl)ccc1-3` [Compound 1048, 4-({2-[(8-chloro-6,12-dioxo-6,12-dihydroindolo[2,1-b]quinazolin-3-yl)(methyl)amino]ethyl}oxy)-4-oxobutanoic acid]: the minimal effective concentration was not below 20 µM.

Regarding `O=C1c2cc(CCCCCCOP(=O)(O)O)ccc2-n2c1nc1ncccc1c2=O` [Compound 1035, 6-(5,11-dioxo-5,11-dihydropyrido[2′,3′:4,5]py-rimido[1,2-a]indol-9-yl)hexyl dihydrogen phosphate], the minimal effective concentration is not above 1.5 µM.

`CN(CC(=O)O)c1ccc2c(=O)n3c(nc2c1)C(=O)c1cc(Cl)ccc1-3` [Compound 1047, [(8-chloro-6,12-dioxo-6,12-dihydroindolo[2,1-b]quinazolin-3-yl)(methyl)amino]acetic acid]: the minimal effective concentration is not below 20 µM.

Turning to `O=C1c2ccccc2-n2c1nc1ccccc1c2=O` [Compound 1037, indolo[2,1-b]quinazoline-6,12-dione], the minimal effective concentration is not below 20 µM.

As for `O=C1c2cc(C(F)(F)F)ccc2-n2c1nc1ccccc1c2=O` [Compound 1046, 8-(trifluoromethyl)indolo[2,1-b]quinazoline-6,12-dione], the minimal effective concentration was not below 20 µM.

In the case of `CC(=O)OCCCCCCc1ccc2c(c1)C(=O)c1nc3ncccc3c(=O)n1-2` [Compound 1052, 6-(5,11-dioxo-5,11-dihydropyrido[2′,3′:4,5]py-rimido[1,2-a]indol-9-yl)hexyl acetate], the minimal effective concentration is not below 20 µM.

As to `O=C1c2cc(F)ccc2-n2c1nc1cc(F)ccc1c2=O` [Compound 1004, 3,8-difluoroindolo[2,1-b]quinazoline-6,12-dione], the minimal effective concentration was not above 1.5 µM.

As for `O=C1c2cc(F)ccc2-n2c1nc1c(O)cccc1c2=O` [Compound 1019, 8-fluoro-4-hydroxyindolo[2,1-b]quinazoline-6,12-dione], the minimal effective concentration was not above 1.5 µM.

Consider `O=C1c2cc(I)ccc2-n2c1nc1c(Br)cc(Br)c(Cl)c1c2=O` [Compound 1014, 2,4-dibromo-1-chloro-8-iodoindolo[2,1-b]quinazoline-6,12-dione], for which the minimal effective concentration is not above 1.5 µM.

With `O=C1c2cc(Cl)ccc2-n2c1nc1cc(F)ccc1c2=O` [Compound 1017, 8-chloro-3-fluoroindolo[2,1-b]quinazoline-6,12-dione], the minimal effective concentration is not above 1.5 µM.

Take `O=C1c2cc(F)ccc2-n2c1nc1c(OCc3ccccc3)cccc1c2=O` [Compound 1044, 8-fluoro-4-[(phenylmethyl)oxy]indolo [2,1-b]quinazoline-6,12-dione]: the minimal effective concentration was not below 20 µM.

With `O=C1c2cc(F)ccc2-n2c1nc1cccc(F)c1c2=O` [Compound 1006, 1,8-difluoroindolo[2,1-b]quinazoline-6,12-dione], the minimal effective concentration was not above 1.5 µM.

In the case of `O=C1c2cc(I)ccc2-n2c1nc1c(Br)cc(Br)c(F)c1c2=O` [Compound 1013, 2,4-dibromo-1-fluoro-8-iodoindolo[2,1-b]quinazoline-6,12-dione], the minimal effective concentration is not above 1.5 µM.

Regarding `O=C1c2cc(F)ccc2-n2c1nc1ncccc1c2=O` [Compound 1025, 9-fluoropyrido[2′,3′:4,5]pyri-mido[1,2-a]indole-5,11-dione], the minimal effective concentration is not above 1.5 µM.

In the case of `Cc1cc(Cl)cc2c1-n1c(nc3ccccc3c1=O)C2=O` [Compound 1011, 8-chloro-10-methylindolo[2,1-b]quinazoline-6,12-dione], the minimal effective concentration was not below 5 µM.

Regarding `O=C1c2cc(Cl)ccc2-n2c1nc1cc(N3CCCCC3)ccc1c2=O` [Compound 1018, 8-chloro-3-piperidin-1-ylindolo[2,1-b]quinazoline-6,12-dione], the minimal effective concentration was not below 5 µM.

For the molecule `O=C1c2cc(OC(F)(F)F)ccc2-n2c1nc1ncccc1c2=O` [Compound 1036, 9-[(trifluoromethyl)oxy]pyri-do[2′,3′:4,5]pyrimido[1,2-a]indole-5,11-dione], the minimal effective concentration was not above 1.5 µM.

Consider `O=C1c2cc(Cl)ccc2-n2c1nc1cc(SCCO)ccc1c2=O` [Compound 1051, 8-chloro-3-[(2-hydroxyethyl)thio]indolo[2,1-b]quinazoline-6,12-dione], for which the minimal effective concentration was not below 20 µM.

On to `O=C1c2cc(I)ccc2-n2c1nc1ccc(I)cc1c2=O` [Compound 1042, 2,8-diiodoindolo[2,1-b]quinazoline-6,12-dione], for which the minimal effective concentration was not below 20 µM.

As to `O=C1c2cc(C(F)(F)F)ccc2-n2c1nc1ncccc1c2=O` [Compound 1034, 9-(trifluoromethyl)pyrido[2′, 3′:4,5]pyrimido[1,2-a]indole-5,11-dione], the minimal effective concentration was not below 5 µM.

As usually defined, the minimal effective concentration is the smallest amount tested that counted as effective.
